Experimental data published in ChEMBL document CHEMBL1159257, “Methyl ethers of podophyllotoxin-related cyclolignans” (J Nat Prod, 1995).

Tests used:
Format in all cases: functional, cell-based
P388 = assay: Cytotoxicity against mouse P388 cells
A549 = assay: Cytotoxicity against human A549 cells
HT-29 = assay: Cytotoxicity against human HT-29 cells

| Structure (SMILES) | IC50 (P388) [µM] | IC50 (A549) [µM] | IC50 (HT-29) [µM] |
| --- | --- | --- | --- |
| COc1cc([C@@H]2c3cc4c(cc3[C@H](OC)[C@@H](COC(C)=O)[C@@H]2COC(C)=O)OCO4)cc(OC)c1OC | 9.7 | 9.7 | 9.7 |
| COc1cc([C@@H]2c3cc4c(cc3[C@@H](OC)[C@@H](CO)[C@@H]2CO)OCO4)cc(OC)c1OC | 11.6 | 11.6 | 11.6 |
| COc1cc([C@@H]2c3cc4c(cc3[C@H](OC)[C@@H](COC(C)=O)[C@H]2COC(C)=O)OCO4)cc(OC)c1OC | 19.4 | > 38.8 | 19.4 |
| COc1cc([C@@H]2c3cc4c(cc3[C@@H](O)[C@H]3COC(=O)[C@H]23)OCO4)cc(OC)c1OC [EPIPODOPHYLLOTOXIN] | 0.06 | 0.06 | 0.06 |
| COc1cc([C@@H]2c3cc4c(cc3C=C3COC(=O)[C@H]32)OCO4)cc(OC)c1OC | 0.013 | 0.025 | 0.025 |
| COc1cc([C@@H]2c3cc4c(cc3[C@H](OC)[C@H]3COC(=O)[C@H]23)OCO4)cc(OC)c1OC | 0.06 | 0.06 | 0.06 |
| COc1cc([C@@H]2c3cc4c(cc3[C@H](OC)[C@H]3COC(=O)[C@@H]23)OCO4)cc(OC)c1OC | 0.12 | 0.12 | 0.23 |
| COc1cc([C@@H]2c3cc4c(cc3[C@@H](OC)[C@@H](COC(C)=O)[C@@H]2COC(C)=O)OCO4)cc(OC)c1OC | 9.7 | 9.7 | 9.7 |
| COc1cc([C@@H]2c3cc4c(cc3[C@@H](OC)[C@@H](CO)[C@H]2CO)OCO4)cc(OC)c1OC | 11.6 | 11.6 | 11.6 |
| COc1cc([C@@H]2c3cc4c(cc3[C@@H](OC)[C@H]3COC(=O)[C@@H]23)OCO4)cc(OC)c1OC | 0.1 | 0.13 | 0.06 |
| COc1cc([C@@H]2c3cc4c(cc3[C@H](OC)[C@@H](CO)[C@H]2CO)OCO4)cc(OC)c1OC | 23.2 | 46.3 | 23.2 |
| COc1cc([C@@H]2c3cc4c(cc3[C@H](O)[C@H]3COC(=O)[C@@H]23)OCO4)cc(OC)c1OC [AXL-1717] | 6 | 6 | 6 |
| COc1cc([C@@H]2c3cc4c(cc3[C@@H](Cl)[C@H]3COC(=O)[C@H]23)OCO4)cc(OC)c1OC | 0.6 | 0.6 | 1.2 |
| COc1cc([C@@H]2c3cc4c(cc3[C@@H](OC)[C@H]3COC(=O)[C@H]23)OCO4)cc(OC)c1OC | 0.06 | 0.06 | 1.2 |
| COc1cc([C@@H]2c3cc4c(cc3[C@@H](OC)[C@@H](COC(C)=O)[C@H]2COC(C)=O)OCO4)cc(OC)c1OC | 9.7 | 9.7 | 9.7 |
| COc1cc([C@@H]2c3cc4c(cc3[C@H](O)[C@H]3COC(=O)[C@H]23)OCO4)cc(OC)c1OC [PODOFILOX] |  |  | 0.0029 |
